Source: US20030229228A1 (priority 2000, published 2003)

CCS(=O)(=O)N[C@H](C(=O)NCCc1cc(Br)c(OCC#Cc2ccc(Cl)cc2)c(OC)c1)C(C)C
melting point: 109 to 111 °C

CCS(=O)(=O)N[C@H](C(=O)NCCc1cc(Br)c(O)c(OC)c1)C(C)C
melting point: 145 to 147 °C
